Tested on: Pseudomonas aeruginosa
Assay: Porcine second degree burn wound model infected with Pseudomonas aeruginosa; flush culture (planktonic) and scrub culture (biofilm) counts
Assay type: in vivo
Settings: pig burn wounds; for reduction of counts of planktonic P. aeruginosa: ointment without SSD; for reduction of biofilm bacteria: treatment within 20 minutes of inoculation, compared to the vehicle control, SSD not printed for these labels
[1] = used within 20 minutes of wound inoculation

For Cn1nc(C(C)(C)C)cc1C(=O)NNC(=O)c1ccc(Cl)s1 [Compound 1], the “reduction of counts of planktonic P. aeruginosa” value (used on established biofilms) was “largest reduction”, the “reduction of counts of planktonic P. aeruginosa” value [1] was “largest reduction” and the “reduction of biofilm bacteria” value was 2 Log. For the same molecule, the “reduction of biofilm P. aeruginosa” value (without SSD, used within 20 minutes) was 1 Log.

For CCCCCCCCCC(=O)CC(=O)Nc1cc(C)ns1 [Compound 2], the “reduction of counts of planktonic P. aeruginosa” value [1] was “lower counts” and the “reduction of biofilm bacteria” value was 1.5 Log.

With CCCCCCCCCC(=O)CC(=O)N(C)c1ccc(F)cc1 [Compound 3] the “reduction of counts of planktonic P. aeruginosa” value [1] was “lower counts”.
